Laboratory results published in patent US6833342B2, “Method of deodorizing and/or cleaning carpet using a composition comprising odor control agent” (The Procter & Gamble Company, priority 1999, dated 2004).

Assay: Interaction of perfume components with cyclodextrin (CD interaction)
Assay type: physicochemical
Conditions: perfume component versus cyclodextrin
Text: Hydrophobic perfume ingredients have a tendency to complex with the cyclodextrins. The degree of hydrophobicity of a perfume ingredient can be correlated with its octanol/water partition coefficient P. The octanol/water partition coefficient of a perfume ingredient is the ratio between its equilibrium concentration in octanol and in water. A perfume ingredient with a greater partition coefficient P is considered to be more hydrophobic. Conversely, a perfume ingredient with a smaller partition coefficient P is considered to be more hydrophilic. […].
The following table illustrates the molecular weight property of some of the preferred perfume versus non-preferred perfume components.

| Molecule | CD interaction |
| --- | --- |
| CC(C=O)Cc1ccc(C(C)C)cc1 (stereo not shown) [Cymal] | strong |
| CCOC(=O)c1ccccc1C(=O)OCC [Diethyl Phthalate] | weak |
| CC(=O)OC1CC2CC1C1CC=CC21 (stereo not shown) [Flor Acetate] | strong |
| CCC(=O)OC1CC2CC1C1CC=CC21 (stereo not shown) [Frutene] | strong |
| CC1COCc2cc3c(cc21)C(C)(C)C(C)C3(C)C (stereo not shown) [Galaxolide] | weak |
| CCCCCCOC(=O)c1ccccc1O [Hexyl Salicylate] | weak |
| CCCCCCC(C=O)=Cc1ccccc1 [Hexyl cinnamic Aldehyde] | weak |
| CC(=O)C1(C)CC2=C(CCCC2(C)C)CC1C (stereo not shown) [Iso-E Super] | weak |
| CCCCCCCCCCCCCC(=O)OC(C)C [Iso-propyl Myristate] | weak |
| CC(=O)C(C)=C(C)C(C)C(C)(C)C (stereo not shown) [Koavone] | strong |
| CC(C=O)Cc1ccc(C(C)(C)C)cc1 (stereo not shown) [Lilial, p-t-bucinal] | strong |
| CC(C)(O)CCCC1=CCC(C=O)CC1 (stereo not shown) [Lyral] | weak |
| CCCCCC1C(=O)CCC1CC(=O)OC (stereo not shown) [Methyl Dihydro Jasmonate] | weak |
| O=C(Cc1ccccc1)OCCc1ccccc1 [Phenyl-Ethyl-Phenyl Acetate] | weak |
| CC(=O)OC(C)(C)C1CC=C(C)CC1 (stereo not shown) [Terpinyl Acetate] | significant |
| CCC(C)(O)CCCC(C)C (stereo not shown) [Tetrahydrolinalol] | significant |
| CC(=O)OC1CCC(C(C)(C)C)CC1 (stereo not shown) [Vertenex, para-tert-butylcyclohexyl acetate] | strong |
| CC(=O)/C=C/C1C(C)=CCCC1(C)C (stereo not shown) [a-ionone] | strong |
| a-Me Ionone | strong |
